In PubChem BioAssay AID588356 (Sanford-Burnham Center for Chemical Genomics, 2011):
The source made the active and inactive calls.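 Rule for the calls: active = mean IC50 below 20 µM; inactive = the rest.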

Molecular target: Hexokinase-1 (Homo sapiens) (UniProt P19367)
Test: HK1 enzyme inhibition by HKDC1 hits, SAR follow-up, selectivity assay for HKDC1 inhibitor project, biochemical, set 2, resazurin fluorescence coupled readout (AID 588356)
Details: G6PDH/diaphorase resazurin fluorescence

Hexokinase-1 (Homo sapiens), sequence (P19367 whole entry, looked up): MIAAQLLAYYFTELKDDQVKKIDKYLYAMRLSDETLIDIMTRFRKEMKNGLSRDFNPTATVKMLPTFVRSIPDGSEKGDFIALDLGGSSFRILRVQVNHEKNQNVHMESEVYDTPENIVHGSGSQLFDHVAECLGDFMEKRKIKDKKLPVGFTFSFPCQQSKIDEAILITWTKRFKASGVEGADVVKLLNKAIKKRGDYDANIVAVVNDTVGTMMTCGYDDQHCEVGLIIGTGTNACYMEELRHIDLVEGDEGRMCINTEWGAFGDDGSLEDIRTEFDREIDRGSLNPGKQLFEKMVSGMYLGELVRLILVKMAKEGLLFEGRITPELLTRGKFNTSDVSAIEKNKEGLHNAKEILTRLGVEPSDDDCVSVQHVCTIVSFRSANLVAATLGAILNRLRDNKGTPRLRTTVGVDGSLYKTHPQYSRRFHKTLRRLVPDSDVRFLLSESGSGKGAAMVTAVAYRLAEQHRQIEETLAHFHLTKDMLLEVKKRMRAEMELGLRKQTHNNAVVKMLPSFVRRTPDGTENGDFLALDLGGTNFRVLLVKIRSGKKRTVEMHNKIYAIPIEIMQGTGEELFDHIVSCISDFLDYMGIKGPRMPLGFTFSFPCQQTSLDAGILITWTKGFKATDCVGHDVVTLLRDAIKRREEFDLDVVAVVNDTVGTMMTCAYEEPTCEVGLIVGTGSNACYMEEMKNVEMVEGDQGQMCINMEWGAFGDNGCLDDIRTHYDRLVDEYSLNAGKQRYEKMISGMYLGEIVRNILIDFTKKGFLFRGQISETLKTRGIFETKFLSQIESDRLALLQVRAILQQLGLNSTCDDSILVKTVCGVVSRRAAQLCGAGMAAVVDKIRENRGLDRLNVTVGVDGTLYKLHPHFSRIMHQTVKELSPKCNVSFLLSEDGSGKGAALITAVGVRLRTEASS

- IC50: inactive
SMILES: COc1cc2c(cc1OC)-c1cc(N3CCc4ccccc4C3)nc(=O)n1CC2
